Laboratory results published in publication PMC6934184, “Selective DNA-PKcs inhibition extends the therapeutic index of localized radiotherapy and chemotherapy” (The Journal of Clinical Investigation, 2019).

Tested on: NHEJ-mediated DSB repair in HEK293T cells
Assay: NHEJ plasmid repair assay
Type: cell-based, Human
Conditions: 1 μM; 24 hours; AfeI or ScaI linearized plasmid
Experimental: The ability of NU5455 to impair the nonhomologous end joining (NHEJ) ability of cells was assessed using a modified version of a DNA repair assay developed by Nagel et al. ([52]), which measures the repair of a plasmid encoding blue fluorescent protein (BFP) and GFP linearized by either an ScaI or an AfeI restriction digestion. Full experimental details are given in Supplemental Methods.
Membranes were then washed in TBST and incubated with HRP-conjugated goat anti-mouse or anti-rabbit antibodies (P0447 and P0448 respectively, Dako) in 5% (w/v) milk/TBST at room temperature for 1-2 hours. Conjugates were detected using Clarity Western ECL Substrate (BioRad) and chemiluminescence imaged using the Fuji LAS-3000 Luminescent Image Analyzer System (Fujifilm).
Densitometry analysis was performed using AIDA Image Analyzer software (Raytest). The intensity of all bands was determined following a background subtraction, and the level of pDNA-PKcs stimulation determined by subtracting basal unstimulated pDNA-PKcs Ser2056 levels. pDNA-PKcs Ser2056 band intensity was calculated relative to total DNA-PKcs band intensity, and is given as percentage expression relative to irradiated, DMSO-treated cells. […]
violet laser with 440/50 emission filter to detect blue fluorescence using the VL1 channel. […]
Data were analyzed by FCS Express 6 Flow Research Edition (De Novo Software). […]

SMILES: CN(C(=O)CN1CCOCC1)c1ccc2sc3c(-c4cccc5c(=O)cc(N6CC7CCC(C6)O7)oc45)cccc3c2c1 [NU5455]
- repair of DNA-DSBs (NHEJ plasmid repair): inhibit the repair of DNA-DSBs
